{"source": "paper PMC6096457", "about": "“Modified translationally controlled tumor protein-derived protein transduction domain enhances nasal delivery of exendin-4 as shown with insulin” (Drug Delivery, 2018)", "assay": "Visual inspection for cloudiness (turbidity) and precipitation", "assay_type": "physicochemical", "details": "mixtures in 10 mM phosphate buffer pH 6.4", "description": "All exendin-4/PTD mixtures were clear.", "data": [{"sequence": "MIIFRLLAYHKK [TCTP-PTD 13M3, substitution S9Y of TCTP-PTD 13M2]", "values": [{"measurement": "cloudiness (turbidity) and precipitation", "result": "did not form any precipitations"}]}]}
